Measurements from patent US20080044498A1, “Therapeutic or prophylactic agent, and method of treating or preventing a disease” (priority 2002, published 2008).
Entries after “also recorded” stand apart in the source; their conditions may differ.

Experiments:
Type in all cases: cell-based
glucose transporter = test: Inhibition by cytochalasin B of 2-deoxyglucose uptake into matured adipocytes; conditions: FIG. 13
Protocol: The influence of cytochalasin B on 2-deoxyglucose uptake into matured adipocytes during the stimulation of the sample into the cells was tested in the same manner as in the method described in Example 5 on whether the enhancing action for glucose uptake of the ethanol extract fraction from root portions of Angelica keiskei koidz. shown in Example 16 is inhibited by cytochalasin B, which is an inhibitor of glucose transporter.
Specifically, as a sample, a group with addition of a dimethyl sulfoxide solution of the ethanol extract fraction from root portions of Angelica keiskei koidz. so as to have a final concentration of 0.1% was set. Here, there were set a group without addition of the sample as a negative control, and a group with addition of insulin so as to have a final concentration of 1 μg/mL as a positive control. Furthermore, a group with addition of cytochalasin B (manufactured by nacalai tesque, 10435-81) so as to have a final concentration of 40 μM was set concurrently to the timing of the setting of the group with addition of insulin in each group. Thereafter, the amount of 2-deoxy-[1,2-^3H(N)]-glucose uptake into the cells was determined in the same manner.

[1] = system: Preadipocyte cell line 3T3-L1; test: Induction of adipocyte differentiation, amount of biosynthesized triglyceride; conditions: positive control, 4 μl of aqueous solution containing 5 mg/mL insulin
Protocol: The induction of an adipocyte differentiation was carried out by partially modifying the above-mentioned method of Rubin C. S. et al. Preadipocyte cell line 3T3-L1 (ATCC CCL-92.1) was suspended in a 10% bovine fetal serum (manufactured by GIBCO)-containing Dulbecco's modified Eagle's medium (manufactured by Sigma, D6046) containing 200 μM ascorbic acid (hereinafter referred to as A-D-MEM) so as to have a concentration of 4×10^3 cells/mL, and the suspension was put in each well of a 12-well microtiter plate in an amount of 2 mL per well. The cells were cultured at 37° C. for 7 days in the presence of 5% carbon dioxide gas. The medium was exchanged with the same medium on the second day and the fourth day. […] Here, there were set a group with addition of 4 μl of an aqueous solution containing 5 mg/mL insulin (manufactured by TAKARA BIO INC.) as a positive control, and a group with addition of water as a negative control. […] The amount of biosynthesized triglyceride in the adipocytes was determined as an index of induction of differentiation into matured adipocytes, and as evaluation of insulin-mimetic action. […] The precipitate was dissolved in 100 μl of isopropanol, and thereafter the amount of triglyceride contained in 10 μl of the resulting solution was determined with Triglyceride G-Test (manufactured by Wako Pure Chemical Industries, Ltd., code 276-69801). […]

[2] = system: matured adipocytes (3T3-L1 cells); test: Enhancing action for glucose uptake (2-deoxyglucose uptake) into matured adipocytes; conditions: positive control, insulin final concentration 1 μg/mL
[3] = system: matured adipocytes (3T3-L1 cells); test: Synergistic enhancing action of glucose uptake with low concentration-insulin in matured adipocytes; conditions: insulin alone, final concentration 0.001 μg/mL; FIG. 14
Protocol: As evaluation of the synergistic enhancing action of glucose uptake by the ethanol extract fraction from root portions of Angelica keiskei koidz. prepared in Example 14 and a low concentration-insulin, the amount of 2-deoxyglucose uptake into matured adipocytes during the stimulation of the sample in the adipocytes was determined partly in the same manner as in the method described in Example 5.
The matured adipocytes were prepared in the same manner as in the method described in item (1) of Example 5.
After the termination of the culture, the medium was removed, and the cells were washed twice with 0.1% (w/v) bovine serum albumin (manufactured by Sigma, A8022)-containing Dulbecco's modified Eagle's medium. Thereafter, 1 mL of the same medium containing a dimethyl sulfoxide solution of the ethanol extract fraction from root portions of Angelica keiskei koidz. having a final concentration of 0.02% was added thereto. The cells were cultured overnight at 37° C. in the presence of 5% carbon dioxide gas. A group without containing the ethanol extract fraction from root portions of Angelica keiskei koidz. was set as a negative control. […] Thereafter, the amount of 2-deoxy-[1,2-^3H(N)]-glucose uptake into the cells was determined in the same manner as in the method described in item (2) of Example 5.

[4] = system: matured adipocytes (3T3-L1 cells); test: Glucose uptake by insulin stimulation into adipocytes induced to be differentiated by the sample; conditions: adipocytes differentiated by insulin (4 μl of 5 mg/mL); insulin stimulation 1 μg/mL; FIG. 15
Description: Adipocytes which were induced to be differentiated by the ethanol extract fraction from Angelica keiskei koidz. prepared in Example 14 were obtained, and thereafter it was confirmed whether the glucose uptake into the cells was enhanced by insulin stimulation.
Specifically, as a sample, there was set a group with addition of a dimethyl sulfoxide solution of the ethanol extract fraction from root portions of Angelica keiskei koidz. to have a final concentration of 0.05%. A group with addition of 4 μl of an aqueous solution containing 5 mg/mL insulin (manufactured by TAKARA BIO INC.) was set as a positive control. […]
Next, the amount of 2-deoxyglucose uptake into the resulting matured adipocytes during the insulin stimulation in the adipocytes was determined in the same manner as in the method described in Example 5.
Specifically, a group without addition of insulin or a group with addition of insulin so as to have a final concentration of 1 μg/mL was set in each of the matured adipocytes. Thereafter, the amount of 2-deoxy-[1,2-^3H(N)]-glucose uptake into the cells was determined in the same manner.

Molecule | inhibition of 2-deoxy-[1,2-3H(N)]-glucose uptake (glucose transporter; cytochalasin B final concentration 40 μM added concurrently with each group) | induction of triglyceride biosynthesis (adipocyte differentiation) [1] | enhancement of 2-deoxy[1,2-3H(N)]-glucose uptake [2] | 2-deoxy-[1,2-3H(N)]-glucose uptake with concurrent cytochalasin B (glucose transporter; insulin 1 μg/mL plus cytochalasin B 40 μM) | enhancement of 2-deoxy-[1,2-3H(N)]-glucose uptake [3] | enhancement of 2-deoxy[1,2-3H(N)]-glucose uptake by insulin stimulation [4]
C=C1[C@@H](C)[C@H]2[C@H](Cc3ccccc3)NC(=O)[C@]23OC(=O)/C=C/[C@H](O)CCC[C@@H](C)C/C=C/[C@H]3[C@@H]1O [cytochalasin B] | almost completely inhibited | – | – | – | – | –
insulin | – | induction of triglyceride biosynthesis could be confirmed | enhancement of 2-deoxy[1,2-^3H(N)]-glucose uptake was found; also recorded: enhancement of 2-deoxy-[1,2-^3H(N)]-glucose uptake was found | almost completely inhibited | enhancement of 2-deoxy-[1,2-^3H(N)]-glucose uptake was found | enhancement of 2-deoxy[1,2-^3H(N)]-glucose uptake was found by insulin stimulation
